The test system of data set [1] is male Wistar rats. In words: Urine alanine aminopeptidase to creatinine ratio (proximal tubular kidney damage). Particulars: for AAP/Cr (urine alanine aminopeptidase to creatinine), Mean: oral gavage, urine collected for 6 hours. The class given is in vivo, rat. From the text:
Myocardial infarction and ischemic events in high risk patients led one of the most popular COX-2 inhibitors to its demise (Bresalier et al., 2005). Non-selective NSAIDS may also cause similar problems due to their ability to inhibit COX-2. […] Adenosine diphosphate (ADP) generation is an indicator of myocardial infarction which has no connection with the arachidonic acid cascade (Borna et al., 2005). […] Long term NSAID use has been linked to kidney damage and hypertension (Zafirovska et al., 1993). […] This was associated with an increase in the urine the ratio of alanine-amino-peptidase (AAP) and creatinine.
(§1) Table 1 is a summary of the protocol for a study which was conducted in male Wistar rats weighing 275-300 grams. The animals were allowed to acclimatize for at least five days prior to the commencement of the study. The study protocol was approved by the local animal ethics committee.
All test animals, housed in metabolic cages, had urine collected over wet ice for 6 hours after dosing. Aliquots of the urine from each animal were collected to determine creatinine concentration. The remainder of the urine was centrifuged at 1000 g for 10 minutes. The supernatant was collected and mixed with analytical grade ethylene glycol at a rate of 0.4 mL ethylene glycol per 1 mL urine supernatant. The ethylene glycol/urine mixture was stored at −80° C. until analysis.

For data set [2] the following is noted: in vitro; Knaus et al., 2005; cited from earlier work.
A short description of data set [3]: Plasma NAPROXEN AUC0-6h after oral dosing. The class given is in vivo, rat. The note with it: male Wistar rats. Here is the method:
as §1

Data set [4] in a line: Hydrolysis in human plasma. The class given is in vitro ADME. An excerpt: The physiologically based pharmacokinetic/pharmacodynamic model of the present invention contains a series of compartments that describe the time course of a nonsteroidal anti-inflammatory prodrug, its active metabolites and nitric oxide release in intestine, liver, kidneys, blood/plasma and heart after prodrug administration. The time course of the prodrug, its active metabolites and nitric oxide release can be simulated using a series of in vitro and in silico inputs. The stability of each component in the gastrointestinal lumen is estimated using data collected from artificial gastric and intestinal juice. Intestinal metabolism is estimated using intestinal microsomes and absorption rate is estimated using permeability data collected from a cell monolayer such as Caco-2. Hepatic elimination is estimated using liver microsomes and stability in plasma is calculated using degradation of each component in the media. Plasma protein binding can either be measured using a standardized in vitro method or it can be estimated using an in silico method. The distribution of each component in various parts of the body is estimated using an in silico method. The rate of nitric oxide release is estimated using an in vitro endothelial cell model. […]

The values that follow come from patent US20080288176A1 (priority 2005, published 2008).

Structures are written as SMILES.

With `COc1ccc2cc(C(C)C(=O)OCON=[N+]([O-])N3CCCC3)ccc2c1` (stereo not drawn) [PYRO-NO-NAP, pyrrolidino-diazeniumdiolate-naproxen], the “AAP/Cr (urine alanine aminopeptidase to creatinine), Mean” value in data set [1] was 195.569. In data set [2], the “NO generating capacity relative to AZD 3582” value is listed as 13 times.

As to `COc1ccc2cc([C@H](C)C(=O)OCCCCO[N+](=O)[O-])ccc2c1` [AZD 3582], in data set [3], the “AUC0-6h of NAPROXEN compared with parent drug (in words)” value is listed as “much lower than for NAPROXEN parent drug”. In data set [1], the “Urine AAP/creatinine ratio change (in words)” value is “did cause an increase” and the “AAP/Cr (urine alanine aminopeptidase to creatinine), Mean” value was determined as 403.400. The “plasma decay rate constant” value in data set [4] came out at 1.0 min⁻¹.
